Values quoted from earlier work, collected in patent publication US20100215723A1, “Wound Dressing with Antimicrobial Gauze and Bonding Agent” (priority 2009, published 2010).

Tests used:
[1] = tested on: aspergillus niger; conditions: stated as known
[2] = tested on: pseudomonas aeruginosa; conditions: stated as known

Q: For Polyhexamethylene biguanide [PHMB], which “indicative MIC value” [1] is on record?
A: 750 ppm

Q: And the “indicative MIC value” [2]?
A: 100 ppm
